Measurements: US20140271734A1, “BILE ACID RECYCLING INHIBITORS FOR TREATMENT OF BARRETT'S ESOPHAGUS AND GASTROESOPHAGEAL REFLUX DISEASE” (LUMENA PHARMACEUTICALS, INC., priority 2013, published 2014)

Legend:
fecal bile acid (FBA) = assay: Fecal bile acids in rats, LUM001 Q.D. for four days; type: in vivo, Wistar rats
Description: Male Wistar rats (Charles River Laboratories) weighing 275-300 grams were single-housed in a constant temperature environment with alternating 12 hour light and dark cycles. All animals had continuous access to a commercial rodent diet as well as water. In each study rats were randomly assigned to either vehicle or treatment groups and were administered intragastric doses (Q.D. gavage) of drug dissolved in aqueous 0.2% (v/v) Tween 80 (2 ml kg body weight). The animals were dosed in the morning between 9:00 and 10:00 a.m. for four consecutive days. Fecal samples were collected on papers underneath each cage during the final 48 hour period of the study and analyzed for bile acid content.
Cage papers containing the 48-hour fecal samples were collected at approximately 9:00 a.m. on the final day and used to determine the individual fecal bile acid (FBA) concentration for each animal. Fecal samples from each rat were weighed and a weight of distilled water (1 gram/mL) equal to 2 times the total weight of feces was added to each sample container (e.g., 20 mL water to 10 grams feces). The containers were stored overnight at 4° C. Each sample was homogenized for approximately 45 seconds using a small food processor to yield a homogeneous slurry. 1.4 grams of the homogenate was weighed into 16×100 polypropylene tubes and 2.6 mL of tertiary butanol/distilled water (2:0.6) added to yield a final concentration of 50% (v/v) tertiary butanol in water. The sample was extracted by incubation for 45 minutes in a 37° C. water bath, and subjected to centrifugation at 3000×g for 13 minutes and the supernatant extract collected.
The concentration of bile acids […] in the extract was determined using a 96-well enzymatic assay system (4,5). 20 μl aliquots of each butanol extract was added to two sets of triplicate wells in a 96-well assay plate (one set on each half of the plate). Standardized sodium taurocholate solutions (0.2 and 0.9 mM) and standardized fecal extract solutions (previously made from pooled fecal samples collected from control and drug-treated rats) were analyzed in parallel to provide a bile acid standard curve and internal quality control samples, respectively. 20 μl aliquots of the sodium taurocholate standard were serially diluted to generate a standard curve and were added to two separate sets of triplicate wells.
To each well, 230 μl of reaction mixture containing 1M hydrazine hydrate, 0.1 M pyrophosphate and 0.46 mg/ml NAD was added. To start the reaction, a 50 μl aliquot of either 3a-hydroxysteroid dehydrogenase enzyme (HSD; 0.8 units/ml) or assay buffer (0.1 M sodium pyrophosphate) was added to one set of triplicate wells for each sample, respectively, with the set containing the assay buffer serving as the reaction blank. All reagents were obtained from Sigma Chemical Co., St. Louis, Mo. Following a 60 minute incubation at room temperature, the optical density at 340 nm was measured and the mean of each set of triplicate wells was calculated. The difference in optical density between the corresponding wells containing the HSD enzyme and the wells containing the assay buffer was used to determine the bile acid concentration (mM) of each sample by comparison to the sodium taurocholate standard curve. The bile acid concentration of the extract and the weight of the fecal homogenate (grams) were used to calculate FBA concentration in mmoles/day for each animal. The mean FBA concentration (mmoles/day) of the vehicle group was subtracted from the FBA concentration of individual rats in a treatment group to yield the increase in FBA concentration due to drug treatment for that animal. A mean value for the increase in FBA for each group was determined and compared to the vehicle group used, to determine compound dosing efficacy. Data was the average from the two days of fecal collection (Mean±SEM, n=4-20). […]

[1] = tested on: 3-Hydroxy-3-Methylglutaryl Coenzyme A (HMG-CoA) Reductase; assay: HMG-CoA reductase activity in liver microsomes of treated dogs; type: in vivo, beagle dogs; conditions: 14 Days; for HMG-CoA Reductase: n=8
Description: Healthy female and male beagle dogs in the age range of 8 to 10 months were used. The animals were acclimated for at least four weeks before dose administration. […] Animals in the control group (group 1) were given the same number of empty capsules as the animals of group 5 to treat all dose groups the same.
At the end of the study, animals were anesthetized, their livers removed and flash frozen and stored at −80 C. Homogenates of three gram liver tissue samples were prepared in 25 ml homogenization buffer [0.1 M potassium phosphate buffer, pH 7.2, containing 0.1 M sucrose, 50 mM KCl, 50 mM NaF, 5 mM ethylene glycol-bis((3-aminoethyl ether)-N,N,N′,N′-tetraacetic acid (EGTA), 1 mM EDTA, 3 mM dithiothreitol (DTT), and 1 mM phenylmethylsulfonyl fluoride (PMSF)]. A microsomal fraction was prepared by centrifugation at 10,000×g for ten minutes. The supernatant was subjected to centrifugation at 105,000×g for two hours. The microsomal fraction was resuspended in a 0.1 M Na tetrapyrophosphate buffer (pH 10), with 50 mM NaF, and 1 mM EDTA, and subjected to centrifugation for one hour at 105,000×g. The microsomal fraction was resuspended in the homogenization buffer, and assayed for protein content by Coomassie Protein Plus Assay reagent.
Microsomes (200 μg) were preincubated for 15 minutes at 37° C. in a total volume of […] buffer containing 0.1 M potassium phosphate (pH 7.4), 10 mM imidazole, 5 mM DTT, 10 mM EDTA, 3 mM NADP, 12 mM glucose-6-phosphate and 1 unit glucose-6-phosphate dehydrogenase (catalog number G4134, Sigma, St. Louis). The HMG-CoA reductase assay was initiated by the addition of 9 nmoles (0.5 μCi) DL-[3^14C] HMG-CoA (final assay volume was […]. The mixture was incubated for 60 minutes at 37° C. after which the assay was stopped with 25 μl of 6 N HCl. [^3H]Mevalonic acid (0.1 μCi), used as an internal standard to correct for incomplete recovery, was added to the reaction mixture along with 3 mg of unlabeled mevalonic acid lactone. The mixture was then incubated for an additional 30 minutes at 37° C. The [^14C]mevalonate that was formed and converted into mevalonic acid lactone during both incubations was isolated by thin layer chromatography. Each lane was scraped into 3 ml of InstaGel XF (Packard, Meriden, Conn.) and read on a Beckman Scintillator Counter. Reagents unless noted otherwise were obtained from Sigma, St. Louis, Mo. Isotopes were obtained from NEN Life Science Products, Boston, Mass.

## CCCCC1(CCCC)CS(=O)(=O)c2ccc(N(C)C)cc2[C@@H](c2ccc(OCc3ccc(C[N+]45CCN(CC4)CC5)cc3)cc2)[C@H]1O [LUM001]
Fecal bile acid (FBA); Q.D. 0.0006 mg/kg/day
  Fecal Bile Acids: 34 µmol/day
  Fecal Bile Acids, Increase over Vehicle (Delta): 12.1 µmol/day
Fecal bile acid (FBA); Q.D. 0.002 mg/kg/day
  Fecal Bile Acids: 26.6 µmol/day
  Fecal Bile Acids, Increase over Vehicle (Delta): 4.1 µmol/day
Fecal bile acid (FBA); Q.D. 0.003 mg/kg/day
  Fecal Bile Acids: 31.3 µmol/day
  Fecal Bile Acids, Increase over Vehicle (Delta): 10.7 µmol/day
Fecal bile acid (FBA); Q.D. 0.008 mg/kg/day
  Fecal Bile Acids: 25.8 µmol/day
  Fecal Bile Acids, Increase over Vehicle (Delta): 5.9 µmol/day
Fecal bile acid (FBA); Q.D. 0.016 mg/kg/day
  Fecal Bile Acids: 41.6 µmol/day
  Fecal Bile Acids, Increase over Vehicle (Delta): 24.7 µmol/day
Fecal bile acid (FBA); Q.D. 0.04 mg/kg/day
  Fecal Bile Acids: 44 µmol/day
  Fecal Bile Acids, Increase over Vehicle (Delta): 21.7 µmol/day
Fecal bile acid (FBA); Q.D. 0.08 mg/kg/day
  Fecal Bile Acids: 55.6 µmol/day
  Fecal Bile Acids, Increase over Vehicle (Delta): 35.2 µmol/day
Fecal bile acid (FBA); Q.D. 0.2 mg/kg/day
  Fecal Bile Acids: 62.7 µmol/day
  Fecal Bile Acids, Increase over Vehicle (Delta): 40.8 µmol/day
Fecal bile acid (FBA); Q.D. 0.4 mg/kg/day
  Fecal Bile Acids: 62.3 µmol/day
  Fecal Bile Acids, Increase over Vehicle (Delta): 47 µmol/day
Fecal bile acid (FBA); Q.D. 2 mg/kg/day
  Fecal Bile Acids: 71.6 µmol/day
  Fecal Bile Acids, Increase over Vehicle (Delta): 54.6 µmol/day
Fecal bile acid (FBA); all doses, Q.D. gavage for four days
  Fecal Bile Acids: significantly increased fecal bile acids for all doses
[1]; 1 mg/kg/day
  HMG-CoA Reductase, % change from vehicle group: (+128) %
  HMG-CoA Reductase: 164 ± 20 pmol/mg/min
[1]; 4 mg/kg/day
  HMG-CoA Reductase, % change from vehicle group: (+242) %
  HMG-CoA Reductase: 246 ± 30 pmol/mg/min
[1]; 12 mg/kg/day
  HMG-CoA Reductase, % change from vehicle group: (+449) %
  HMG-CoA Reductase: 395 ± 46 pmol/mg/min
[1]; 30 mg/kg/day
  HMG-CoA Reductase, % change from vehicle group: (+656) %
  HMG-CoA Reductase: 544 ± 33 pmol/mg/min
